US9730894B2, “Stabilized HME composition with small drug particles” (BOARD OF REGENTS, THE UNIVERSITY OF TEXAS SYSTEM, priority 2004, dated 2017)

Experiments:
[1] = Dissolution test, USP 27 Type II paddle apparatus; format: physicochemical; settings: 900 ml 0.1 N HCl, 37° C., 50 rpm, equivalent to 10 mg active
Procedure: The dissolution media was 900 ml of 0.1 N HCl, and was de-aerated with helium for approximately 15 minutes before each dissolution test. In all cases where not otherwise specified, the equivalent to 10 mg of the active ingredient was added to each dissolution vessel.

[2] = Solubilization of ITZ by the carrier during hot-melt extrusion at 100° C. (DSC, SEM); settings: extruded at 100° C., confirmed by SEM and DSC
Procedure: A Randcastle Microtruder RCP-0750 hot-melt extruder equipped with a 6 mm round die was operated at 15 RPM, 0.2-0.3 Drive Amps with an Extrusion Temperature of 100° C. to prepare the composition. All powders were blended in a v-shell blender prior to extrusion. Temperature zones were set as follows: zone 1: 90° C., zone 2: 95° C., zone 3: 100° C., die temperature 100° C. The powder blend was placed in a hopper that is located at the head of a vertical screw such that the material is flood fed by gravity. The residence time of the material in the extruder was approximately three minutes. The extrudate was sheared into approximately one foot sections after exiting the die and placed on an aluminum sheets and allowed to cool at ambient conditions.
The fine drug-containing particles and compositions containing them were analyzed by scanning electron microscopy using a Hitachi S-4500 scanning electron microscope. Samples were coated with Au/Pd and an accelerating voltage of 5 kV was used.
Changes in the degree of crystallization of the fine drug-containing particles, either neat or dispersed within a hot-melt extruded composition, were determined and quantified by differential scanning calorimetry. A TA Instruments Model 2920 calorimeter was used to conduct the analyses.

## CCC(C)n1ncn(-c2ccc(N3CCN(c4ccc(OCC5COC(Cn6cncn6)(c6ccc(Cl)cc6Cl)O5)cc4)CC3)cc2)c1=O (centres unmarked) [bulk ITZ, itraconazole]
[1]
  ITZ drug release (dissolved) in 10 minutes (FIG. 12): less than 1%
[2]
  Solubility of itraconazole in PEO when extruded: substantially insoluble
